Earlier results in patent US8828355B2, “Imaging reporters of transgene expression” (University of Utah Research Foundation, priority 2004, dated 2014).

How the values were obtained:
Maltose binding protein = Maltose binding protein (Escherichia coli, UniProt P0AEX9); details: specificity
[1] = target: Mutant maltose binding protein, combination of both these mutations (Escherichia coli, UniProt P0AEX9, DEL198-201/M347A/Q351A/Y202G); details: read-out: KD for maltotriose

## OC[C@H]1O[C@H](O[C@H]2O[C@H](CO)[C@@H](O)[C@H](O)[C@H]2O)[C@H](O)[C@@H](O)[C@@H]1O [trehalose]
Maltose binding protein
  binding to maltose binding protein: not to bind

## OC[C@H]1O[C@@](CO)(O[C@H]2O[C@H](CO)[C@@H](O)[C@H](O)[C@H]2O)[C@@H](O)[C@@H]1O [sucrose]
Maltose binding protein
  binding to maltose binding protein: not to bind

## OC[C@H]1O[C@@H](O[C@H]2[C@H](O)[C@@H](O)C(O)O[C@@H]2CO)[C@H](O)[C@@H](O)[C@H]1O (stereo partly shown) [lactose]
Maltose binding protein
  binding to maltose binding protein: not to bind

## maltotriose
[1]
  Kd: 6 nM

## OC[C@H]1O[C@H](O[C@H]2[C@H](O)[C@@H](O)[C@H](O)O[C@@H]2CO)[C@H](O)[C@@H](O)[C@@H]1O [maltose]
infused
  clearance from the body: rapidly cleared from the body by the kidney
  distribution after infusion: distributed in the extracellular space
Intravenous infusion
  safety of intravenous infusion: safe
